Results as given in ChEMBL document CHEMBL1201861, “Genomics of Drug Sensitity in Cancer screening data, Wellcome Trust Sanger Institute”.

Legend:
COLO-792 = experiment: cells; format: functional, cell-based; settings: Homo sapiens
Description: SANGER: Inhibition of human COLO-792 cell growth in a cell viability assay.

COR-L279 = experiment: SANGER: Inhibition of human COR-L279 cell growth in a cell viability assay.; format: functional, cell-based
Capan-2 = experiment: cells; format: functional, cell-based; settings: Homo sapiens;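 note: Capan-2 cell growth inhibition, read out with a viability assay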
Description: SANGER: Inhibition of human Capan-2 cell growth in a cell viability assay.

EVSA-T = experiment: cells; format: functional, cell-based; settings: Homo sapiens;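 note: growth inhibition of EVSA-T cells, read out with a cell viability assay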
Description: SANGER: Inhibition of human EVSA-T cell growth in a cell viability assay.

HCT-15 = experiment: cells; format: functional, cell-based; settings: Homo sapiens;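 note: cell viability readout, IC50 reflecting suppression of HCT-15 cell growth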
Description: SANGER: Inhibition of human HCT-15 cell growth in a cell viability assay.

HT-1080 = experiment: cells; format: functional, cell-based; settings: Homo sapiens
Description: SANGER: Inhibition of human HT-1080 cell growth in a cell viability assay.

HT-3 = experiment: cells; format: functional, cell-based; settings: Homo sapiens;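 note: growth inhibition measured with a cell viability readout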
Description: SANGER: Inhibition of human HT-3 cell growth in a cell viability assay.

HT55 = experiment: cells; format: functional, cell-based; settings: Homo sapiens;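 note: cell viability readout measuring growth inhibition of human HT55 cells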
Description: SANGER: Inhibition of human HT55 cell growth in a cell viability assay.

Huh-7 = experiment: cells; format: functional, cell-based; settings: Homo sapiens;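 note: HuH-7 cell growth inhibition, read out with a cell viability assay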
Description: SANGER: Inhibition of human HuH-7 cell growth in a cell viability assay.

JEG-3 = experiment: cells; format: functional, cell-based; settings: Homo sapiens;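 note: growth inhibition of human JEG-3 cells, read out with a cell viability assay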
Description: SANGER: Inhibition of human JEG-3 cell growth in a cell viability assay.

KOSC-2 = experiment: cells; format: functional, cell-based; settings: Homo sapiens;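 note: growth inhibition of KOSC-2 cells, read out by a cell viability assay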
Description: SANGER: Inhibition of human KOSC-2 cell growth in a cell viability assay.

KP-4 = experiment: cells; format: functional, cell-based; settings: Homo sapiens;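 note: human KP-4 cells, with growth inhibition read out through a cell viability assay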
Description: SANGER: Inhibition of human KP-4 cell growth in a cell viability assay.

KYSE-140 = experiment: cells; format: functional, cell-based; settings: Homo sapiens;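 note: cell viability assay measuring growth inhibition in human KYSE-140 cells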
Description: SANGER: Inhibition of human KYSE-140 cell growth in a cell viability assay.

KYSE-180 = experiment: cells; format: functional, cell-based; settings: Homo sapiens;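 note: growth inhibition of KYSE-180 cells, read out with a cell viability assay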
Description: SANGER: Inhibition of human KYSE-180 cell growth in a cell viability assay.

KYSE-270 = experiment: cells; format: functional, cell-based; settings: Homo sapiens;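 note: cell growth inhibition measured with a viability assay in the human KYSE-270 line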
Description: SANGER: Inhibition of human KYSE-270 cell growth in a cell viability assay.

KYSE-450 = experiment: cells; format: functional, cell-based; settings: Homo sapiens;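 note: cell growth inhibition measured by a viability assay in human KYSE-450 cells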
Description: SANGER: Inhibition of human KYSE-450 cell growth in a cell viability assay.

LU-165 = experiment: cells; format: functional, cell-based; settings: Homo sapiens
Description: SANGER: Inhibition of human LU-165 cell growth in a cell viability assay.

ME-180 = experiment: cells; format: functional, cell-based; settings: Homo sapiens;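 note: cell viability assay measuring growth inhibition of ME-180 cells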
Description: SANGER: Inhibition of human ME-180 cell growth in a cell viability assay.

MFE-280 = experiment: cells; format: functional, cell-based; settings: Homo sapiens;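 note: growth inhibition of MFE-280 cells, determined with a cell viability readout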
Description: SANGER: Inhibition of human MFE-280 cell growth in a cell viability assay.

MG-63 = experiment: cells; format: functional, cell-based; settings: Homo sapiens;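 note: growth inhibition of human MG-63 cells, read out with a cell viability assay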
Description: SANGER: Inhibition of human MG-63 cell growth in a cell viability assay.

MKN-1 = experiment: cells; format: functional, cell-based; settings: Homo sapiens;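 note: growth inhibition of human MKN1 cells, read out by a cell viability measurement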
Description: SANGER: Inhibition of human MKN1 cell growth in a cell viability assay.

MKN-28 = experiment: cells; format: functional, cell-based; settings: Homo sapiens;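 note: cell viability assay read-out, IC50 reflects suppression of growth of human MKN-28 cells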
Description: SANGER: Inhibition of human MKN28 cell growth in a cell viability assay.

MKN-45 = experiment: cells; format: functional, cell-based; settings: Homo sapiens;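 note: growth inhibition of human MKN-45 cells, measured with a cell viability assay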
Description: SANGER: Inhibition of human MKN45 cell growth in a cell viability assay.

MONO-MAC-6 = experiment: cells; format: functional, cell-based; settings: Homo sapiens;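 note: cell viability assay measuring growth inhibition of human MONO-MAC-6 cells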
Description: SANGER: Inhibition of human MONO-MAC-6 cell growth in a cell viability assay.

NB1 = experiment: cells; format: functional, cell-based; settings: Homo sapiens;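 note: reduction of NB1 cell proliferation, read out with a viability assay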
Description: SANGER: Inhibition of human NB1 cell growth in a cell viability assay.

NCI-H1563 = experiment: cells; format: functional, cell-based; settings: Homo sapiens;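 note: growth inhibition of human NCI-H1563 cells, read out with a cell viability assay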
Description: SANGER: Inhibition of human NCI-H1563 cell growth in a cell viability assay.

NCI-H1755 = experiment: cells; format: functional, cell-based; settings: Homo sapiens;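 note: cell viability readout used to measure growth inhibition of NCI-H1755 cells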
Description: SANGER: Inhibition of human NCI-H1755 cell growth in a cell viability assay.

NCI-H1993 = experiment: cells; format: functional, cell-based; settings: Homo sapiens;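 note: growth inhibition of the cancer cell line, assessed with a cell viability assay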
Description: SANGER: Inhibition of human NCI-H1993 cell growth in a cell viability assay.

NCI-H2009 = experiment: cells; format: functional, cell-based; settings: Homo sapiens;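 note: cell viability assay measuring inhibition of NCI-H2009 cell growth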
Description: SANGER: Inhibition of human NCI-H2009 cell growth in a cell viability assay.

NCI-H2170 = experiment: cells; format: functional, cell-based; settings: Homo sapiens;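 note: cell viability assay measuring growth inhibition of human NCI-H2170 cancer cells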
Description: SANGER: Inhibition of human NCI-H2170 cell growth in a cell viability assay.

NCI-H2196 = experiment: cells; format: functional, cell-based; settings: Homo sapiens;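 note: cell viability assay used as the readout of growth inhibition in NCI-H2196 cells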
Description: SANGER: Inhibition of human NCI-H2196 cell growth in a cell viability assay.

NCI-H2342 = experiment: cells; format: functional, cell-based; settings: Homo sapiens;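 note: growth inhibition of the cancer cell line, determined with a cell viability assay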
Description: SANGER: Inhibition of human NCI-H2342 cell growth in a cell viability assay.

NCI-H358 = experiment: cells; format: functional, cell-based; settings: Homo sapiens;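 note: growth inhibition of NCI-H358 human cells, read out with a cell viability assay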
Description: SANGER: Inhibition of human NCI-H358 cell growth in a cell viability assay.

NCI-H522 = experiment: cells; format: functional, cell-based; settings: Homo sapiens;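 note: cell viability assay measuring growth inhibition of human NCI-H522 cells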
Description: SANGER: Inhibition of human NCI-H522 cell growth in a cell viability assay.

NCI-H596 = experiment: cells; format: functional, cell-based; settings: Homo sapiens;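 note: growth inhibition of NCI-H596 cells, read out with a cell viability assay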
Description: SANGER: Inhibition of human NCI-H596 cell growth in a cell viability assay.

NCI-H64 = experiment: cells; format: functional, cell-based; settings: Homo sapiens;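 note: growth inhibition of NCI-H64 cells, read out with a cell viability assay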
Description: SANGER: Inhibition of human NCI-H64 cell growth in a cell viability assay.

OAW-28 = experiment: cells; format: functional, cell-based; settings: Homo sapiens;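 note: growth inhibition of OAW-28 cells, read out with a cell viability assay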
Description: SANGER: Inhibition of human OAW-28 cell growth in a cell viability assay.

OVCAR-3 = experiment: cells; format: functional, cell-based; settings: Homo sapiens;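 note: growth inhibition of human OVCAR-3 cells, determined by a cell viability assay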
Description: SANGER: Inhibition of human OVCAR-3 cell growth in a cell viability assay.

OVCAR-8 = experiment: cells; format: functional, cell-based; settings: Homo sapiens;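 note: growth inhibition of human OVCAR-8 cells, read out by a cell viability assay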
Description: SANGER: Inhibition of human OVCAR-8 cell growth in a cell viability assay.

P12-Ichikawa = experiment: cells; format: functional, cell-based; settings: Homo sapiens
RT-112 = experiment: cells; format: functional, cell-based; settings: Homo sapiens
Description: SANGER: Inhibition of human RT-112 cell growth in a cell viability assay.

SCC-3 = experiment: cells; format: functional, cell-based; settings: Homo sapiens;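 note: cell viability assay measuring inhibition of SCC-3 cell growth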
Description: SANGER: Inhibition of human SCC-3 cell growth in a cell viability assay.

SIG-M5 = experiment: cells; format: functional, cell-based; settings: Homo sapiens;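 note: cell viability assay read-out, measuring how strongly growth of cultured human SIG-M5 cells is inhibited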
Description: SANGER: Inhibition of human SIG-M5 cell growth in a cell viability assay.

SIMA = experiment: cells; format: functional, cell-based; settings: Homo sapiens;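 note: growth inhibition of SIMA cells, measured with a cell viability readout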
Description: SANGER: Inhibition of human SIMA cell growth in a cell viability assay.

SK-HEP1 = experiment: cells; format: functional, cell-based, SK-HEP-1; settings: Homo sapiens;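 note: cell viability readout used to quantify reduction in proliferation of human SK-HEP-1 cells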
Description: SANGER: Inhibition of human SK-HEP-1 cell growth in a cell viability assay.

SK-LU-1 = experiment: cells; format: functional, cell-based; settings: Homo sapiens;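 note: cell viability assay measuring growth inhibition of human SK-LU-1 cells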
Description: SANGER: Inhibition of human SK-LU-1 cell growth in a cell viability assay.

SNU-387 = experiment: cells; format: functional, cell-based; settings: Homo sapiens
Description: SANGER: Inhibition of human SNU-387 cell growth in a cell viability assay.

SU-DHL-1 = experiment: SANGER: Inhibition of human SU-DHL-1 cell growth in a cell viability assay.; format: functional, cell-based
SW1088 = experiment: cells; format: functional, cell-based; settings: Homo sapiens;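 note: growth inhibition of human SW1088 cells, read out by a cell viability assay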
Description: SANGER: Inhibition of human SW1088 cell growth in a cell viability assay.

SW1417 = experiment: cells; format: functional, cell-based; settings: Homo sapiens;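 note: growth inhibition of human SW1417 cells, read out with a cell viability assay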
Description: SANGER: Inhibition of human SW1417 cell growth in a cell viability assay.

SW1783 = experiment: cells; format: functional, cell-based; settings: Homo sapiens
Description: SANGER: Inhibition of human SW1783 cell growth in a cell viability assay.

SAOS-2 = experiment: cells; format: functional, cell-based; settings: Homo sapiens;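 note: growth inhibition of human Saos-2 cells determined by a cell viability assay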
Description: SANGER: Inhibition of human Saos-2 cell growth in a cell viability assay.

T98G = experiment: cells; format: functional, cell-based; settings: Homo sapiens;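 note: growth inhibition of T98G cells, read out by a cell viability assay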
Description: SANGER: Inhibition of human T98G cell growth in a cell viability assay.

TCC-SUP = experiment: cells; format: functional, cell-based; settings: Homo sapiens;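 note: growth inhibition of TCC-SUP cells, read out with a cell viability assay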
Description: SANGER: Inhibition of human TCCSUP cell growth in a cell viability assay.

647-V = experiment: cells; format: functional, cell-based; settings: Homo sapiens;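 note: growth inhibition of 647-V cells, read out with a cell viability assay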
Description: SANGER: Inhibition of human 647-V cell growth in a cell viability assay.

A673 = experiment: cells; format: functional, cell-based; settings: Homo sapiens;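 note: growth inhibition of human A673 cells, read out through a cell viability assay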
Description: SANGER: Inhibition of human A673 cell growth in a cell viability assay.

AU565 = experiment: cells; format: functional, cell-based; settings: Homo sapiens;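 note: cell viability assay measuring growth inhibition of human AU565 cells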
Description: SANGER: Inhibition of human AU565 cell growth in a cell viability assay.

BFTC-909 = experiment: cells; format: functional, cell-based; settings: Homo sapiens
Description: SANGER: Inhibition of human BFTC-909 cell growth in a cell viability assay.

CAL-62 = experiment: cells; format: functional, cell-based; settings: Homo sapiens;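 note: growth inhibition of CAL-62 cells, read out with a cell viability assay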
Description: SANGER: Inhibition of human CAL-62 cell growth in a cell viability assay.

TE-441-T = experiment: cells; format: functional, cell-based; settings: Homo sapiens
Description: SANGER: Inhibition of human TE-441-T cell growth in a cell viability assay.

TUR = experiment: cells; format: functional, cell-based; settings: Homo sapiens
Description: SANGER: Inhibition of human TUR cell growth in a cell viability assay.

UMUC3 = experiment: cells; format: functional, cell-based; settings: Homo sapiens
Description: SANGER: Inhibition of human UM-UC-3 cell growth in a cell viability assay.

YKG-1 = experiment: cells; format: functional, cell-based; settings: Homo sapiens
Description: SANGER: Inhibition of human YKG-1 cell growth in a cell viability assay.

CHL-1 = experiment: cells; format: functional, cell-based; settings: Homo sapiens
Description: SANGER: Inhibition of human CHL-1 cell growth in a cell viability assay.

Work on `CCNC(=O)c1noc(-c2cc(C(C)C)c(O)cc2O)c1-c1ccc(CN2CCOCC2)cc1` [LUMINESPIB] yielded an IC50 (COLO-792) of 88.5 nM, an IC50 (COR-L279) of 158 nM and an IC50 (Capan-2) of 6.38 nM. The IC50 (EVSA-T) was 92.7 nM, the IC50 (HCT-15) was 66 nM and the IC50 (HT-1080) was 22.1 nM. The IC50 (HT-3) was greater than 256 nM, the IC50 (HT55) was greater than 256 nM and the IC50 (Huh-7) was 70.3 nM. It also gave an IC50 (JEG-3) of 95.1 nM, an IC50 (KOSC-2) of 41.1 nM and an IC50 (KP-4) of 36.6 nM. The IC50 (KYSE-140) was 20.2 nM, the IC50 (KYSE-180) was 5.86 nM and the IC50 (KYSE-270) was 10.6 nM. The IC50 (KYSE-450) was 13.5 nM, the IC50 (LU-165) was 154 nM and the IC50 (ME-180) was 47.8 nM. It also gave an IC50 (MFE-280) greater than 256 nM, an IC50 (MG-63) of 18.7 nM and an IC50 (MKN-1) of 49.3 nM. The IC50 (MKN-28) was 30.1 nM, the IC50 (MKN-45) was 206 nM and the IC50 (MONO-MAC-6) was 38.9 nM. For the same compound, the IC50 (NB1) was 144 nM, the IC50 (NCI-H1563) was greater than 256 nM and the IC50 (NCI-H1755) was 138 nM. For the same compound, the IC50 (NCI-H1993) was greater than 256 nM, the IC50 (NCI-H2009) was 27.6 nM and the IC50 (NCI-H2170) was 163 nM. For the same compound, the IC50 (NCI-H2196) was 217 nM, the IC50 (NCI-H2342) was 17.6 nM and the IC50 (NCI-H358) was 42.1 nM. The IC50 (NCI-H522) was 19.4 nM, the IC50 (NCI-H596) was 174 nM and the IC50 (NCI-H64) was greater than 256 nM. The IC50 (OAW-28) was greater than 256 nM, the IC50 (OVCAR-3) was 141 nM and the IC50 (OVCAR-8) was 32.8 nM. The IC50 (P12-Ichikawa) was greater than 256 nM, the IC50 (RT-112) was 5.35 nM and the IC50 (SCC-3) was greater than 256 nM. For the same compound, the IC50 (SIG-M5) was 4.89 nM, the IC50 (SIMA) was greater than 256 nM and the IC50 (SK-HEP1) was 3.36 nM. For the same compound, the IC50 (SK-LU-1) was 18.5 nM, the IC50 (SNU-387) was 92.2 nM and the IC50 (SU-DHL-1) was 69.2 nM. It also gave an IC50 (SW1088) greater than 256 nM, an IC50 (SW1417) greater than 256 nM and an IC50 (SW1783) of 5.91 nM. It also gave an IC50 (SAOS-2) of 76 nM, an IC50 (T98G) of 74.2 nM and an IC50 (TCC-SUP) greater than 256 nM. The IC50 (647-V) was 149 nM, the IC50 (A673) was 104 nM and the IC50 (AU565) was 118 nM. The IC50 (BFTC-909) was 31.3 nM, the IC50 (CAL-62) was 25.7 nM and the IC50 (TE-441-T) was 49.3 nM. The IC50 (TUR) was 77.3 nM, the IC50 (UMUC3) was 49.5 nM and the IC50 (YKG-1) was 11.6 nM. For the same compound, the IC50 (CHL-1) was 41.7 nM.
`CC(O)(CS(=O)(=O)c1ccc(F)cc1)C(=O)Nc1ccc(C#N)c(C(F)(F)F)c1` (stereo not drawn) [BICALUTAMIDE] gave an IC50 (COLO-792) greater than 1020 nM, an IC50 (COR-L279) greater than 1020 nM and an IC50 (Capan-2) greater than 1020 nM. It also gave an IC50 (EVSA-T) greater than 1020 nM, an IC50 (HCT-15) greater than 1020 nM and an IC50 (HT-1080) greater than 1020 nM. The IC50 (HT-3) was 731 nM, the IC50 (HT55) was greater than 1020 nM and the IC50 (Huh-7) was greater than 1020 nM. The IC50 (JEG-3) was greater than 1020 nM, the IC50 (KOSC-2) was greater than 1020 nM and the IC50 (KP-4) was greater than 1020 nM. The IC50 (KYSE-140) was greater than 1020 nM, the IC50 (KYSE-180) was greater than 1020 nM and the IC50 (KYSE-270) was greater than 1020 nM. It also gave an IC50 (KYSE-450) greater than 1020 nM, an IC50 (LU-165) greater than 1020 nM and an IC50 (ME-180) greater than 1020 nM. It also gave an IC50 (MFE-280) greater than 1020 nM, an IC50 (MG-63) greater than 1020 nM and an IC50 (MKN-1) greater than 1020 nM. It also gave an IC50 (MKN-28) greater than 1020 nM, an IC50 (MKN-45) greater than 1020 nM and an IC50 (MONO-MAC-6) greater than 1020 nM. For the same compound, the IC50 (NB1) was greater than 1020 nM, the IC50 (NCI-H1563) was greater than 1020 nM and the IC50 (NCI-H1755) was greater than 1020 nM. It also gave an IC50 (NCI-H1993) greater than 1020 nM, an IC50 (NCI-H2009) greater than 1020 nM and an IC50 (NCI-H2170) greater than 1020 nM. It also gave an IC50 (NCI-H2196) greater than 1020 nM, an IC50 (NCI-H2342) greater than 1020 nM and an IC50 (NCI-H358) greater than 1020 nM. It also gave an IC50 (NCI-H522) greater than 1020 nM, an IC50 (NCI-H596) greater than 1020 nM and an IC50 (NCI-H64) greater than 1020 nM. It also gave an IC50 (OAW-28) greater than 1020 nM, an IC50 (OVCAR-3) greater than 1020 nM and an IC50 (OVCAR-8) greater than 1020 nM. The IC50 (P12-Ichikawa) was greater than 1020 nM, the IC50 (RT-112) was greater than 1020 nM and the IC50 (SCC-3) was greater than 1020 nM. It also gave an IC50 (SIG-M5) greater than 1020 nM, an IC50 (SIMA) greater than 1020 nM and an IC50 (SK-HEP1) greater than 1020 nM. It also gave an IC50 (SK-LU-1) greater than 1020 nM, an IC50 (SNU-387) greater than 1020 nM and an IC50 (SU-DHL-1) greater than 1020 nM. It also gave an IC50 (SW1088) greater than 1020 nM, an IC50 (SW1417) greater than 1020 nM and an IC50 (SW1783) greater than 1020 nM. It also gave an IC50 (SAOS-2) greater than 1020 nM, an IC50 (T98G) greater than 1020 nM and an IC50 (TCC-SUP) greater than 1020 nM. For the same compound, the IC50 (647-V) was greater than 1020 nM, the IC50 (A673) was greater than 1020 nM and the IC50 (AU565) was greater than 1020 nM. For the same compound, the IC50 (BFTC-909) was greater than 1020 nM, the IC50 (CAL-62) was greater than 1020 nM and the IC50 (TE-441-T) was greater than 1020 nM. The IC50 (TUR) was greater than 1020 nM, the IC50 (UMUC3) was greater than 1020 nM and the IC50 (YKG-1) was greater than 1020 nM. It also gave an IC50 (CHL-1) greater than 1020 nM.
